This is an account of results in US20230142547A1, “COMPOUNDS FOR TREATING OR PREVENTING A CORONAVIRIDAE INFECTION & METHODS AND USES FOR ASSESSING THE OCCURRENCE OF A CORONAVIRIDAE INFECTION” (ABIVAX, priority 2020, published 2023).

Series [1] relates to human reconstituted airway epithelial model of bronchial origin. Format: cell-based. Conditions: infected HAE, 48h post-infection.
Series [2] deals with SARS-CoV2. Put plainly: Inhibition of SARS-CoV2 replication in MucilAir reconstituted human airway epithelium, viral genome by RT-qPCR. Format: cell-based. Conditions: for effect on SARS-CoV2 replication (in words): daily treatment, increasing concentrations. (Quantitative PCR measures a nucleic acid by following its amplification.)
The subject of series [3] is SARS-CoV-2. Format: cell-based. The note with it: 48 hours post-infection, FIG. 2.
Series [4] can be described thus: Tissue distribution of radioactivity in rat after single oral [14C]-ABX464 (whole-body autoradiography, liquid scintillation counting). Format: in vivo. The note with it: for concentration of radioactivity, Aortic wall / concentration of radioactivity, Lung / concentration of radioactivity, Myocardium / concentration of radioactivity, Nasal mucosa / concentration of radioactivity, Oesophageal wall / concentration of radioactivity, Tongue / concentration of radioactivity, Blood / concentration of radioactivity, Plasma: male albino rats, single oral 20 mg/kg; for concentration of radioactivity, Blood / concentration of radioactivity, Plasma: liquid scintillation counting. How it is done: (§1) This study was conducted in order to determine the tissue distribution and rates and routes of excretion of radioactivity in the rat following a single oral administration of [^14C]-ABX464. Analysis was performed using liquid scintillation counting (plasma and excreta) and quantitative whole-body autoradiography.
(§2) All animals received a single oral administration of [^14C]-ABX464 by oral gavage, at a nominal dose level of 20 mg/kg body weight and a dose volume of approximately 5 mL/kg. The target radioactive dose administered was ca 8 MBq/kg body weight.
Radioactivity in Blood and Plasma Whilst under terminal anaesthesia, but before freezing, up to 2 mL of blood was obtained from all animals by cardiac puncture and transferred to tubes pre-coated with K2-EDTA. The residual sample was centrifuged in order to obtain plasma. The radioactivity concentration was measured in blood and plasma by liquid scintillation counting.
For each animal, the legs, tail and whiskers were trimmed off and the frozen carcass set in a block of aqueous 2% (w/v) carboxymethylcellulose. The block was mounted onto the stage of a Leica CM3600 cryomicrotome maintained at ca −20° C. (Leica Microsystems (UK) Ltd) and sagittal sections (nominal thickness 30 μm) were obtained through the carcass to include the following tissues: exorbital lachrymal gland, intra-orbital lachrymal gland, Harderian gland, adrenal gland, thyroid, brain and spinal cord. The sections, mounted on Filmolux 610 Tape (Neschen UK), were freeze-dried in a GVD03 bench-top freeze-drier (Girovac Ltd) and placed in contact with FUJI imaging plates (type BAS-MS, Raytek Scientific Ltd). [^14C]-Blood standards of appropriate activity (also sectioned at a nominal thickness of 30 μm) were placed in contact with all imaging plates.
After exposure in a copper-lined, lead exposure box for 7 days, the imaging plates were processed using a FUJI FLA-5000 radiography system (Raytek Scientific Ltd). Electronic images were analysed using a PC-based image analysis package (Seescan 2 software, LabLogic Ltd). The carbon-14 standards included with each autoradiogram were used to construct calibration lines over a range of radioactivity concentrations.
Wherever possible, the maximum area within a single autoradiogram was defined for each tissue for measurement.
(§3) A suitable scintillation counter was used. Radioassays were performed at least in duplicate. Efficiency correlation curves were prepared and routinely checked by the use of [14-C]toluene and Ultima Gold™ quenched standards (PerkinElmer LAS (UK) Ltd).
Concentration of radioactivity in sample=C (dpm/g)
Specific radioactivity of test substance=S (MBq/mg)
Concentration of radioactivity in sample=(C/60000)/S (μg equiv/g)

Series [5] has as its system SARS-CoV2. Put plainly: ABX464 in combination with Remdesivir: SARS-CoV2 viral RNA in HAE by RT-qPCR. Format: cell-based. The note with it: FIG. 3B.
Series [6] can be described thus: Rates and routes of excretion of radioactivity in rat after single oral [14C]-ABX464. Format: in vivo. Here is the method:
as §1, §2, §3

Setting [7] is: Severe acute respiratory syndrome coronavirus 2, RTqPCR, mean of duplicates, read-out: % inhibition of viral infection, MEAN.
Setting [8] is: Severe acute respiratory syndrome coronavirus 2, RTqPCR, replicate N1, read-out: % inhibition of viral infection, N1.
[9] abbreviates: Severe acute respiratory syndrome coronavirus 2, RTqPCR, replicate N2, read-out: % inhibition of viral infection, N2.

Like-named read-outs stand apart in the source and are kept apart here.

For `N#Cc1ccc(Nc2ccc3ccccc3n2)nc1` [ABX300, reference compound], the “epithelium integrity measured by TEER (in words)” value in series [1] was “reduction in epithelium integrity”. In series [2] (all tested concentrations (10 μM, 1 μM and 0.1 μM)), the “% inhibition of viral replication” value turned out to be 0%. Moreover, the “effect on SARS-CoV2 replication (in words)” value (shortened to “effect”) in series [2] is “fails to show a marked effect on viral replication”. In addition, the “TCID50 (in words)” value in series [3] is “very modest effect on the TCID50”.

Regarding `FC(F)(F)Oc1ccc(Nc2ccc3cccc(Cl)c3n2)cc1` [ABX464, 8-Chloro-N-(4-(trifluoromethoxy)phenyl)quinolin-2-amine], the “epithelium integrity measured by TEER (in words)” value in series [1] is on record as “protective effect on the integrity of bronchial epithelium”. Besides, in series [2] (setting [7]), the inhibition at 0.1 µM was found to be 32.5% and the inhibition at 1 µM came to 93.2%. Moreover, in series [2] (setting [8]), the inhibition at 0.1 µM came out at 26.4% and the inhibition at 1 µM is 88.8%. Moreover, in series [2] (setting [9]), the inhibition at 0.1 µM came to 38.5% and the inhibition at 1 µM was found to be 97.7%. The inhibition at 5 µM in series [2] (Severe acute respiratory syndrome coronavirus 2, 5 μM, RTqPCR, mean of duplicates, read-out: % inhibition of viral infection, MEAN) amounted to 95.5%. The inhibition at 5 µM in series [2] (Severe acute respiratory syndrome coronavirus 2, 5 μM, RTqPCR, replicate N1, read-out: % inhibition of viral infection, N1) was 99.4%. Also, the inhibition at 5 µM in series [2] (Severe acute respiratory syndrome coronavirus 2, 5 μM, RTqPCR, replicate N2, read-out: % inhibition of viral infection, N2) was found to be 91.7%. Also, the “effect” value in series [2] is reported as “dose-dependent inhibition of SARS-CoV2 replication”. In series [4] (1 hour), the “concentration of radioactivity, Aortic wall” value (“concentration … Aortic wall” below) is recorded as 0.337 μg equivalents per gram; the “concentration of radioactivity, Lung” value is recorded as 1.19 μg equivalents per gram; the “concentration of radioactivity, Myocardium” value (from here on “concentration … Myocardium”) is 1.28 μg equivalents per gram; the “concentration of radioactivity, Nasal mucosa” value (from here on “concentration … Nasal mucosa”) is 0.252 μg equivalents per gram. In series [4] (1 hour), the “concentration of radioactivity, Oesophageal wall” value (“concentration … Oesophageal wall” below) is 1.72 μg equivalents per gram; the “concentration of radioactivity, Tongue” value worked out at 0.495 μg equivalents per gram; the “concentration of radioactivity, Blood” value is 0.398 μg equivalents per gram; the “concentration of radioactivity, Plasma” value turned out to be 0.461 μg equivalents per gram. Further, in series [4] (4 hours), the “concentration … Aortic wall” value worked out at 1.59 μg equivalents per gram; the “concentration of radioactivity, Lung” value is given as 1.89 μg equivalents per gram; the “concentration … Myocardium” value is 1.45 μg equivalents per gram; the “concentration … Nasal mucosa” value worked out at 0.708 μg equivalents per gram. For the same molecule, in series [4] (4 hours), the “concentration … Oesophageal wall” value was determined as 2.72 μg equivalents per gram; the “concentration of radioactivity, Tongue” value is recorded as 1.92 μg equivalents per gram; the “concentration of radioactivity, Blood” value came to 0.978 μg equivalents per gram; the “concentration of radioactivity, Plasma” value stood at 1.25 μg equivalents per gram. Moreover, in series [4] (8 hours), the “concentration … Aortic wall” value is recorded as 1.74 μg equivalents per gram; the “concentration of radioactivity, Lung” value was determined as 1.45 μg equivalents per gram; the “concentration … Myocardium” value came out at 0.677 μg equivalents per gram; the “concentration … Nasal mucosa” value is recorded as 0.585 μg equivalents per gram. In addition, in series [4] (8 hours), the “concentration … Oesophageal wall” value amounted to 0.795 μg equivalents per gram; the “concentration of radioactivity, Tongue” value is on record as 0.689 μg equivalents per gram; the “concentration of radioactivity, Blood” value is listed as 0.807 μg equivalents per gram; the “concentration of radioactivity, Plasma” value was determined as 1.18 μg equivalents per gram. Also, in series [4] (24 hours), the “concentration … Aortic wall” value was determined as 0.129 μg equivalents per gram; the “concentration of radioactivity, Lung” value came to 0.457 μg equivalents per gram; the “concentration … Myocardium” value was 0.143 μg equivalents per gram; the “concentration … Nasal mucosa” value worked out at 0.084 μg equivalents per gram. In series [4] (24 hours), the “concentration … Oesophageal wall” value is reported as 0.265 μg equivalents per gram; the “concentration of radioactivity, Tongue” value is given as 0.122 μg equivalents per gram; the “concentration of radioactivity, Blood” value worked out at 0.229 μg equivalents per gram; the “concentration of radioactivity, Plasma” value worked out at 0.203 μg equivalents per gram. The “increase of affinity of related radioactivity to bind to the cellular partition of blood” value in series [4] (over the study duration, rat, oral 20 mg/kg) was found to be 10 fold. In addition, in series [4] (rat, oral 20 mg/kg), the “binding of related material to melanin” value is reported as “no evidence for the binding”; the “radioactivity in the central nervous system / blood-brain barrier” value is given as “drug related material crossed the blood-brain barrier, but was subsequently eliminated”; the “systemic and tissue bioavailability by the oral route (in words)” value is “excellent systemic and tissue bioavailability”. Moreover, in series [3], the “TCID50 (in words)” value is recorded as “dose-dependent decrease of the TCID50”. Further, the “reduction of viral RNA” value in series [5] (1 μM of ABX464 alone, HAE, RT-qPCR) was 1.5 log. Also, the “radioactivity remaining in carcasses” value in series [6] (final sampling time of 168 hours, excretion balance phase) is recorded as “less than 0.5 % of the administered dose”. Also, in series [6] (rat, oral 20 mg/kg), the “elimination of radioactivity via faeces” value was 88%, the “radioactivity excreted via the renal system” value is given as “less than 5%” and the “total mean recovery of radioactivity” value is given as 93%±1.8. The “orally administered dose absorbed” value in series [6] (rat, oral 20 mg/kg, inferred from excretion) is recorded as “at least 5%”.

Consider `O=C(O)[C@H]1O[C@@H](N(c2ccc(OC(F)(F)F)cc2)c2ccc3cccc(Cl)c3n2)[C@H](O)[C@@H](O)[C@@H]1O` [ABX464-N-Gluc], for which the inhibition at 0.1 µM in series [2] (setting [7]), in series [2] (setting [8]) and in series [2] (setting [9]) was 0% throughout. Further, the results for the inhibition at 1 µM in series [2] (setting [7]), in series [2] (setting [8]) and in series [2] (setting [9]) were 29%, 20% and 38%, respectively. The inhibition at 10 µM in series [2] (setting [7]) is 88%; in series [2] (setting [8]) it was 99.9%; in series [2] (setting [9]), 76%. Further, the “effect” value in series [2] was “dose-dependent effect”. For the same molecule, the “TCID50 (in words)” value in series [3] is on record as “a decrease is also observed”.

As to `CCC(CC)COC(=O)[C@H](C)N[P@](=O)(OC[C@H]1O[C@@](C#N)(c2ccc3c(N)ncnn23)[C@H](O)[C@@H]1O)Oc1ccccc1` [Remdesivir, reference compound], the inhibition at 5 µM came to 100% in series [2] (Severe acute respiratory syndrome coronavirus 2, read-out: % inhibition of viral infection, MEAN); 99.9% in series [2] (Severe acute respiratory syndrome coronavirus 2, read-out: % inhibition of viral infection, N1); 100% in series [2] (Severe acute respiratory syndrome coronavirus 2, read-out: % inhibition of viral infection, N2). Besides, the “reduction of viral RNA” value in series [5] (REM alone (5 μM), values from another experiment) was found to be 4 log.

As usually defined, the inhibition is the change of the read-out against control, counted positive when it falls.
